# Test results from patent US4788216A, “Medicinal uses for podophyllotoxins” (Conpharm AB, priority 1984, dated 1988).
# Values joined by “and” are separate entries in the source; they are usually repeats but may differ in a detail not shown here. Identical values can stand only once.
# Columns and labels:
# [1] = system: formation of specific antibodies; experiment: Antibody formation in mice injected with sheep erythrocytes; format: in vivo; settings: daily injections after administration of erythrocytes, spleen
# Text: Injection with a suspension of erythrocytes from sheep to mice causes formation of specific antibodies against this antigen. This reaction which normally is very strong requires a cooperation between different cell types, substantially macrophages, T and B lymphocytes, and can easily be detected in the spleen of the test animals.
# Acute toxicity in rabbit = settings: in vivo, topical or ocular, dermal
# Text: (§1) The acute toxicity of podophyllotoxin has been determined on various test animals and by various ways of administration.
# cytotoxic cells = experiment: In vitro development of cytotoxic cells; format: cell-based
# [2] = system: psoriasis vulgaris lesions; experiment: Clinical investigation in psoriasis vulgaris patients, topical cream; format: in vivo, human (patients)
# Method: A clinical investigation was carried out with totally 152 patients of an age between 19 and 71 years (mean value 46.1 years) afflicted with psoriasis vulgaris. The patients were divided into three groups of 50, 51 and 51 persons who were treated topically with a cream containing 0.1, 0.25 and 0.5% of podophyllotoxin, respectively. Each patient was treated only on a specific attacked area of the body while other attacked areas served as comparison. The severity of the attack was judged at the start of the treatment, and 2, 4, 8, 12 and 16 weeks after this, no treatment being carried out during the last period of 4 weeks. The investigation was carried out with double blind technique and the results were treated statistically.
# Acute toxicity in rat = settings: in vivo
# Text: as §1
# proliferation of cells = experiment: In vitro proliferation of cells caused by mitogenic lectins or cells from a non-related individual; format: cell-based
# Acute toxicity in mouse = settings: in vivo
# Text: as §1
# Solubility in water = format: physicochemical; settings: in its pure state
# Text: The compound podophyllotoxin has the following physical data in its pure state: […]
# Plasmodium falciparum = experiment: Clinical effect against malaria (number of asexual parasites in blood of patients); format: in vivo; settings: individual patient
# Method: The effect against malaria was determined clinically on a number of patients which had been attacked by the malaria parasite Plasmodium falciparum. Podophyllotoxin was administered in two different doses and the number of parasites in the patients was determined for each day and was noted as the number of asexual parasites per cubic millimeter of blood.
smiles,measurement,setting,value
COc1cc([C@@H]2c3cc4c(cc3[C@H](O)[C@H]3COC(=O)[C@H]23)OCO4)cc(OC)c1OC [podophyllotoxin],inhibition of antibody formation against sheep erythrocytes,[1],inhibited in a dose-dependent way
same,LD50,Acute toxicity in rabbit,200 mg/kg
same,inhibition of development of cytotoxic cells,cytotoxic cells,inhibits the development of cytotoxic cells
same,effects at markedly lower doses (development of cytotoxic cells),cytotoxic cells; markedly lower doses,at markedly lower doses these effects increase
same,reversibility of secondary effects,[2]; after interruption of the treatment,disappeared after interruption of the treatment
same,difference between treated and untreated lesions,[2]; after two weeks and in the course of the treatment,statistically significant difference
same,patients free from symptoms or with only mild ones,"[2]; at the fifth control, untreated lesions: only two patients",70-75%
same,improvement of severity of treated lesions with associated symptoms,"[2]; cream 0.1, 0.25 and 0.5%, all three dosage levels",statistically significant improvements
same,patients reporting secondary effects such as rash,"[2]; of 152 patients, three cream strengths together",11 patients
same,deterioration of severity or symptoms of treated lesions in follow-up,"[2]; weeks 13 to 16, no treatment",no deterioration occurred
same,LD50,Acute toxicity in rat; iv,10 mg/kg
same,LD50,"Acute toxicity in rat; topical or ocular, dermal",500 mg/kg
same,time to recover complete reactivity to the stimuli,proliferation of cells; cells treated with podophyllotoxin,≤ 24 h
same,effects at markedly lower doses (proliferation),"proliferation of cells; in vitro, markedly lower doses",at markedly lower doses these effects increase
same,inhibition of proliferation of cells,"proliferation of cells; in vitro, mitogenic lectins or cells from a non-related individual",inhibits the proliferation of cells
same,LD50,Acute toxicity in mouse; iv,20 mg/kg
same,LD50,Acute toxicity in mouse; po,100 mg/kg
same,solubility,Solubility in water,120 µg/mL
same,Remarks (outcome),Plasmodium falciparum; 1.5 mg per day (t.i.d.),Marked reduction of parasites
same,"number of asexual parasites, day 0",Plasmodium falciparum; 1.5 mg per day (t.i.d.),660 asexual parasites per cubic mi and 13710 asexual parasites per cubic mi and 1410 asexual parasites per cubic mi and 960 asexual parasites per cubic mi and 13080 asexual parasites per cubic mi and 4380 asexual parasites per cubic mi
same,"number of asexual parasites, day 1",Plasmodium falciparum; 1.5 mg per day (t.i.d.),180 asexual parasites per cubic mi and 3000 asexual parasites per cubic mi and 360 asexual parasites per cubic mi and 90 asexual parasites per cubic mi and 510 asexual parasites per cubic mi and 1560 asexual parasites per cubic mi
same,"number of asexual parasites, day 2",Plasmodium falciparum; 1.5 mg per day (t.i.d.),0 asexual parasites per cubic mi and 120 asexual parasites per cubic mi and 180 asexual parasites per cubic mi
same,"number of asexual parasites, day 3",Plasmodium falciparum; 1.5 mg per day (t.i.d.),0 asexual parasites per cubic mi and 660 asexual parasites per cubic mi
same,"number of asexual parasites, day 4",Plasmodium falciparum; 1.5 mg per day (t.i.d.),180 asexual parasites per cubic mi and 0 asexual parasites per cubic mi and 60 asexual parasites per cubic mi and 1400 asexual parasites per cubic mi
same,"number of asexual parasites, day 5",Plasmodium falciparum; 1.5 mg per day (t.i.d.),270 asexual parasites per cubic mi and 0 asexual parasites per cubic mi and 60 asexual parasites per cubic mi
same,"number of asexual parasites, day 6",Plasmodium falciparum; 1.5 mg per day (t.i.d.),270 asexual parasites per cubic mi and 0 asexual parasites per cubic mi and 60 asexual parasites per cubic mi
same,"number of asexual parasites, day 7",Plasmodium falciparum; 1.5 mg per day (t.i.d.),270 asexual parasites per cubic mi and 0 asexual parasites per cubic mi and 60 asexual parasites per cubic mi
same,Remarks (outcome),Plasmodium falciparum; 3.0 mg per day (t.i.d.),Cured
same,"number of asexual parasites, day 0",Plasmodium falciparum; 3.0 mg per day (t.i.d.),2880 asexual parasites per cubic mi and 2060 asexual parasites per cubic mi and 6080 asexual parasites per cubic mi and 320 asexual parasites per cubic mi
same,"number of asexual parasites, day 1",Plasmodium falciparum; 3.0 mg per day (t.i.d.),2520 asexual parasites per cubic mi and 1600 asexual parasites per cubic mi and 2000 asexual parasites per cubic mi and 60 asexual parasites per cubic mi
same,"number of asexual parasites, day 2",Plasmodium falciparum; 3.0 mg per day (t.i.d.),60 asexual parasites per cubic mi and 0 asexual parasites per cubic mi
same,"number of asexual parasites, day 3",Plasmodium falciparum; 3.0 mg per day (t.i.d.),540 asexual parasites per cubic mi and 0 asexual parasites per cubic mi
same,"number of asexual parasites, day 4",Plasmodium falciparum; 3.0 mg per day (t.i.d.),600 asexual parasites per cubic mi and 0 asexual parasites per cubic mi
same,"number of asexual parasites, day 5",Plasmodium falciparum; 3.0 mg per day (t.i.d.),600 asexual parasites per cubic mi and 0 asexual parasites per cubic mi
same,"number of asexual parasites, day 6",Plasmodium falciparum; 3.0 mg per day (t.i.d.),0 asexual parasites per cubic mi
same,"number of asexual parasites, day 7",Plasmodium falciparum; 3.0 mg per day (t.i.d.),0 asexual parasites per cubic mi
